Test results as given in patent US10435400B2, “2,4-disubstituted phenylene-1,5-diamine derivatives and applications thereof, and pharmaceutical compositions and pharmaceutically acceptable compositions prepared therefrom” (SHANGHAI HAIYAN PHARMACEUTICAL TECHNOLOGY CO., LTD., priority 2014, dated 2019).
Like-named read-outs stand apart in the source and are kept apart here.

What was measured:
[1] = system: A431 cells; assay: Cytostatic activity by MTT method, A431 cells; details: read-out: A431 cells (IC50/nM);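 note: viability read by MTT reduction after compound exposure, with MTT incubated for a further 4 h at 37 °C under 5% CO2 in 96-well plates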
Description: After rinsed for one time, 1.5 ml trypsin/EDTA was added to digest the adherent cells until the cells detached, and then 3.5 ml of medium was added to terminate the trypsinization. The digested cell suspension was transferred to a 15 ml falcon tube, and spun at 1300 rpm for 3 min, the supernatant was discarded, and cells were suspended in fresh medium.
The cells were added into the incubator after addition of the test compound, and incubated for 72 h, 10 μl of 5 mg/ml MTT (Sigma, M5655) solution was added to each well of the plate, and incubated the 96-well plates at 37° C. 5% CO2 for 4 h in a incubator.
The plates were spun at 2000 rpm for 5 min.

[2] = system: NIH3T3 cells; assay: Cytotoxicity by MTT method, NIH3T3 cells; format: cell-based; details: cytotoxicity, MTT, 72 h, read-out: NIH3T3 cells MTT assay (IC50/nM);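 note: cells grown in 96-well plates with compound for 72 h, then given MTT for a further 4 h at 37 °C under 5% CO2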
[3] = system: H1975 cells; assay: Cytostatic activity by MTT method, H1975 cells; format: cell-based; details: MTT; for IC50: 72 h, read-out: H1975 cells (IC50/nM); for selective inhibitory activity against the cell growth [IC50 (A431 cells)/IC50 (H1975 cells)]: ratio of IC50 values
Description: MTT assay used the method well known to those skilled in the art, and the reagents used in the method can be commercially obtained. […] After rinsed for one time, 1.5 ml trypsin/EDTA was added to digest the adherent cells until the cells detached, and then 3.5 ml of medium was added to terminate the trypsinization. The digested cell suspension was transferred to a 15 ml falcon tube, and spun at 1300 rpm for 3 min, the supernatant was discarded, and cells were suspended in fresh medium. […] The plates were spun at 2000 rpm for 5 min.

[4] = molecular target: EGFR WT kinase (Homo sapiens (Human), UniProt P00533); assay: Wild type EGFR kinase inhibition test (z-lyte); format: biochemical; details: 10 μM ATP
[5] = system: A431 cells; assay: ELISA cell activity, EGF-stimulated A431 cells; format: cell-based; details: ELISA, compound 1 h then EGF 45 minutes, read-out: A431 cells (IC50/nM);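 note: Serum-starved A431 cells pretreated with compound for 1 h, then stimulated with EGF for 45 min, lysates read by ELISA (OD450 minus OD570), EGF-only wells as control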
Description: (§1) The reagents, preparation methods of the solution, as well as the procedures of cell treatments and preparation of lysate, and the test steps of ELISA in the following method were conducted according to the instructions of R&D DYC3570, R&D DYC1095E and R&D DYC1095BE.
(§2) Cell lysates: cell lysis buffer+10 μg/ml Aprotinin (Sigma), 10 μg/ml Leupeptin (Sigma). All reagents were prepared when using.
(2) The medium of A431 cells was changed to 90 ul of DMEM FBS free medium, and incubated overnight.
(3) The test compounds were diluted according to the method in MTT assay, 10 μl of diluted compound or DMSO was added to the corresponding plate well, and incubated at 37° C. with 5% CO2 for 1 h. The final concentration of DMSO was 0.5%. 10 μl of 2 μg/L EGF was then added to each well except the cell control well, 10 μl of FBS free DMEM was added to the well, and incubated for 45 minutes; the EGF-free and compound treatment-free cells were used as cell control, and the compound treatment-free but only EGF-treated cells were used as EGF control.
(4) 100 μl cell lysate was added after aspirating the medium, sealed and placed in refrigerator at −80° C. overnight.
The assay was operated according to the instructions of R&D DYC3570E.
(§3) (5) 40 μl of cell lysis buffer and 60 μl of cell lysates were added, and incubated at 25° C. for 2 h under shaking;
(7) Detection antibody was diluted according to a predetermined ratio of kit instruction by using IC dilution, and 100 μl of the diluted Detection Antibody was added to each well, and incubated at 25° C. for 1 h under shaking in darkness;
(9) reagent A and reagent B of TMB substrate (R & D DY999) were mixed at 1:1, 100 μl of substrate was added to each well, and incubated at 25° C. for 20 minutes under shaking in darkness;
(11) The OD450 values and OD570 values of the cell control, blank control and compound treatment were measured respectively by using microplate reader (Thermo Multiskan K3), and the corresponding OD570 values were subtracted from OD450 values of the same wells to get the ODEGF, ODcompound and ODcell respectively.

[6] = system: H1975 cells; assay: ELISA screening EGFR T790M inhibitor for cell activity, H1975 cells; format: cell-based; details: ELISA; for IC50: compound 1 h, read-out: H1975 cells (IC50/nM); for Selective inhibitory activities of target on cellular level [IC50 (A431 cells)/IC50 (H1975 cells)]: ratio of IC50 values
Description: as §1, §2
(2) The test compounds were diluted according to the method in MTT assay, and 10 μl of diluted compound or DMSO was added to the corresponding plate well, and incubated at 37° C. with 5% CO2 for 1 h. The final concentration of DMSO was 0.5%. Cell culture system merely treated with DMSO was used as cell control.
(3) 100 μl cell lysate was added after aspirating the medium, sealed and placed in a refrigerator at −80° C. overnight. Cell lysis buffer used as blank control.
The assay was operated according to the instructions of R&D DYC1095E or R&D DYC1095BE.
as §3
(7) Detection antibody was diluted according to a predetermined ratio as stipulated in kit instructions by using IC diluent, and 100 μl of the diluted Detection Antibody was added to each well, and incubated at 25° C. for 1 h under shaking in darkness;
(9) reagent A and reagent B of TMB substrate (R & D DY999) were mixed with 1:1, and 100 μl of substrate was added to each well, and incubated at 25° C. for 20 minutes under shaking in darkness;
(11) The OD450 values and OD570 values of the cell control, blank control and compound treatment were measured respectively by using microplate reader (Thermo Multiskan K3), and the corresponding OD570 values were subtracted from OD450 values of the same wells to get the ODcell, ODblank and ODcompound treatment respectively.
2.3 Data Analysis Inhibition ratio (%)=100%×(ODcell−ODcompound treatment)(ODcell−ODblank)

EGFR WT kinase, sequence (P00533 25-1210): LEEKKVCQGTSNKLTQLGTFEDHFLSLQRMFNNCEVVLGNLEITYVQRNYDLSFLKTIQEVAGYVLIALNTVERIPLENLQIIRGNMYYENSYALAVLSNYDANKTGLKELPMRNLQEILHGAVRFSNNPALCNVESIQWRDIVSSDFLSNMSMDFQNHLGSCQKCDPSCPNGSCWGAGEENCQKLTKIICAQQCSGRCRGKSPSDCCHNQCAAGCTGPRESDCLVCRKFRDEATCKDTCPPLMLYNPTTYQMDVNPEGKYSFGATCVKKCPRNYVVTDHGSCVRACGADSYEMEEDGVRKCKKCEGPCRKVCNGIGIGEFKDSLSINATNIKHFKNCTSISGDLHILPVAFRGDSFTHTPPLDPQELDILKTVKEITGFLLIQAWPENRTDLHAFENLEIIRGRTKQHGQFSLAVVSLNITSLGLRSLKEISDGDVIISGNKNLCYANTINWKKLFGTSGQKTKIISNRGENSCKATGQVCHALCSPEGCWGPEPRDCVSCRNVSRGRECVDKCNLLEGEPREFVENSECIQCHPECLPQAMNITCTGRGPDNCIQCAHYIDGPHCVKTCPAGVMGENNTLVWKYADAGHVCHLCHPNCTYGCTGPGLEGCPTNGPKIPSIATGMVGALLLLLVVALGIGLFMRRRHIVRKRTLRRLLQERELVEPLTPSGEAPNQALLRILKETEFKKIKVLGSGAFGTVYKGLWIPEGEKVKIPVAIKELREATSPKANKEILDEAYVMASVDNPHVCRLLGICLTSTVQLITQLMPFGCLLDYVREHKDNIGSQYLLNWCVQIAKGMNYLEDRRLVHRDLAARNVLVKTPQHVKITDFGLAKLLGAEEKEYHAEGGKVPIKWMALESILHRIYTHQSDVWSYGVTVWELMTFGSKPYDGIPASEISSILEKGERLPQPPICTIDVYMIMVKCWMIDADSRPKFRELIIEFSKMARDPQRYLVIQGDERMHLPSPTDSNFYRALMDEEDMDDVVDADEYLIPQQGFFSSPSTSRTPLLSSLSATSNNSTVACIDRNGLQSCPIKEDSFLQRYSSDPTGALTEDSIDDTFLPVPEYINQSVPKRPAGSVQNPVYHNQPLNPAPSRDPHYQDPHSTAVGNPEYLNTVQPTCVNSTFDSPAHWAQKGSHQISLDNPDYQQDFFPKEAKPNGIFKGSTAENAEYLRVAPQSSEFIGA

Structure (SMILES)	IC50 ([1]; Homo sapiens, A-431, 72 h)	IC50 ([2]; Mus musculus, NIH3T3)	IC50 ([3]; Homo sapiens, NCI-H1975)	selective inhibitory activity against the cell growth [IC50 (A431 cells)/IC50 (H1975 cells)] [3]	IC50 [4]	IC50 ([5]; Homo sapiens, A-431)	IC50 ([6]; Homo sapiens, NCI-H1975)	IC50 [5]	IC50 ([1]; MTT, 72 h)	IC50 [3]	IC50 [6]	Selective inhibitory activities of target on cellular level [IC50 (A431 cells)/IC50 (H1975 cells)] [6]	IC50 [2]
C=CC(=O)Nc1cc(Nc2ncc(Cl)c(-c3ccn(C)c3)n2)c(OC)cc1N1CCC(N(C)C)CC1 [Compound Z-98, N-(5-(5-chloro-4-(1-methyl-1H-pyrrol-3-yl)pyrimidin-2-ylamino)-2-(4-(dimethylamino)piperidin-1-yl)-4-methoxyphenyl)acrylamide]	1640 nM	4360 nM	108 nM	15.2	407 nM								
C=CC(=O)Nc1cc(Nc2ncc(Cl)c(-c3cn[nH]c3)n2)c(OC)cc1N1CCC(N(C)C)CC1 [Compound Z-102, N-(5-(5-chloro-4-(1H-pyrazol-4-yl)pyrimidin-2-ylamino)-2-(4-(dimethylamino)piperidin-1-yl)-4-methoxyphenyl)acrylamide]	597 nM		15 nM			1020 nM	11 nM						
C=CC(=O)Nc1cc(Nc2nccc(-c3cnc4c(ccn4C)c3)n2)c(OC)cc1N(C)CCNC [Compound Z-106]				52.7	4 nM			193 nM	685 nM	13 nM	12 nM	16.1	
C=CC(=O)Nc1cc(Nc2nccc(-c3cnc4c(ccn4C)c3)n2)c(OC)cc1N(C)CCN(CC)CC [Compound Z-107]				38.2	16 nM			855 nM	1410 nM	37 nM	55 nM	15.5	
C=CC(=O)Nc1cc(Nc2nccc(-c3cnc4c(ccn4C)c3)n2)c(OC)cc1N(C)CCCN(C)C [Compound Z-108]				37.7					2900 nM	77 nM			3620 nM
C=CC(=O)Nc1cc(Nc2nccc(-c3cnc4c(ccn4C)c3)n2)c(OC)cc1N(C)CCN1CCCC1 [Compound Z-112]					22 nM			486 nM			77 nM	6.3	> 10000 nM
C=CC(=O)Nc1cc(Nc2ncc(Cl)c(-c3cnc4c(ccn4C)c3)n2)c(OC)cc1N1CC(N(C)C)C1 [Compound Z-113]					121 nM			2250 nM			99 nM	22.8	5320 nM
C=CC(=O)Nc1cc(Nc2ncc(F)c(-c3cnc4c(c3)c(Cl)cn4C)n2)c(OC)cc1N(C)CCN(C)C [Compound Z-123]				40.2	3 nM				1040 nM	26 nM			4740 nM
C=CC(=O)Nc1cc(Nc2nccc(-c3cnc4c(ccn4C(C)C)c3)n2)c(OC)cc1N(C)CCN(C)C [Compound Z-124]				46.8	13 nM				1780 nM	38 nM			3240 nM
C=CC(=O)Nc1cc(Nc2nccc(-c3cccnc3)n2)c(OC)cc1N1CCC(N(C)C)CC1 [compound 2, reference compound]	6660 nM		277 nM	24		199 nM	241 nM					0.83	
C=CC(=O)Nc1cc(Nc2ncc(OC)c(-c3cnc4ccccc4c3)n2)c(OC)cc1N1CCC(N(C)C)CC1 [compound 3, reference compound]	2970 nM		437 nM	6.8		3110 nM	1140 nM					2.7	
